According to patent publication US20080207885A1, “Method for site-specific labeling of RNA using a deoxyribozyme” (priority 2007, published 2008):
{App} = adenylated (5'-5' adenylyl pyrophosphate) terminus

What was measured:
Assay type in all cases: biochemical
[1] = test system: 10DM24 deoxyribozyme; assay: 10DM24-catalyzed ligation of small-molecule NTP substrate to branch-site adenosine of RNA substrate L with cofactor RΔ; details: for kobs,enh/kobs,std: GTP series; for krel = kobs,NTP*/kobs,NTP: relative to GTP
Procedure: (§1) General Description of Kinetic Assays. All kinetic assays with the 10DM24 deoxyribozyme and its variants were performed according to established methods (Flynn-Charlebois, et al. (2003) supra; Wang and Silverman (2003) supra). The 5′-^32P-labeled RNA substrate (L for “left-hand substrate”) that provides the branch-site adenosine was the limiting reagent relative to 10DM24 (E) and the truncated cofactor RNA (RΔ; R originally derived from “right-hand substrate”). The ratio L:E:RΔ was 1:10:30, with 0.25 μM 10DM24. The cofactor RΔ was 5′-phosphorylated unless otherwise stated. The RNA substrate L, deoxyribozyme 10DM24 and cofactor RΔ were annealed in 5 mM HEPES, pH 7.5, 15 mM NaCl, 0.1 mM EDTA by heating at 95° C. for 3 minutes and cooling on ice for 5 minutes. The ligation reactions were performed with the appropriate concentration of NTP substrate (0.05-50 mM) at a final buffer concentration of 100 mM CHES, pH 9.0, 150 mM NaCl, 2 mM KCl, and 40-400 mM MgCl2 at 37° C. for up to 5 hours. The combination of 1 mM NTP and 40 mM MgCl2 was defined as “standard incubation conditions”; 10 mM NTP and 150 mM MgCl2 was defined as “enhanced incubation conditions”. At appropriate timepoints, aliquots were removed from the sample, quenched into stop solution (80% formamide, 1× TB [89 mM each Tris and boric acid, pH 8.3], and 50 mM EDTA containing 0.025% bromophenol blue and xylene cyanol) and stored at −20° C. prior to analysis. Samples were separated by 20% denaturing PAGE at 30 W for 115 minutes and imaged with a PHOSPHORIMAGER. The resulting data were fit to the equation yield=Y·(1−e^−kt), where k=kobs and Y=final yield.
Use of Free NTPs as Substrates. It was determined whether 10DM24 could catalyze ligation with free GTP as a substrate (see FIG. 1B), thereby transferring guanosine 5′-monophosphate (GMP) to the branch-site adenosine 2′-hydroxyl group. When RΔ, an oligoribonucleotide cofactor that corresponds to all of the remaining nucleotides of R, was added to 10DM24 along with GTP, ligation was efficient (FIG. 8; 94% yield in 5 hours and kobs 0.034 min^−1 under the standard incubation conditions of 1 mM GTP and 40 mM MgCl2 at pH 9.0, 37° C.). The RNA product with the single added guanosine at the branch-site adenosine was PAGE-purified and the identity confirmed by partial alkaline hydrolysis (50 mM NaHCO3 at 95° C. for 5 minutes) and MALDI mass spectrometry (m/z calcd. 5433, found 5437±5).

[2] = test system: 10DM24 deoxyribozyme; assay: Ligation of GTP or pppGpG in presence of shorter cofactor RΔΔ; details: RΔΔ cofactor, 20 mM NTP and 150 mM MgCl2, pH 9.0, 37° C.
Procedure: It was subsequently shown that a binding site for an NTP cofactor can be located adjacent to the substrate binding site. This was achieved by removing an additional nucleotide from the RΔ cofactor, forming the shorter RΔΔ cofactor which required two added nucleotides to reconstitute the complete P4 region (FIG. 10). The 10DM24-catalyzed ligation reaction of GTP in the presence of the two-nucleotide short cofactor RΔΔ was performed with the 5′-^32P-labeled RNA substrate (L) that provides the branch-site adenosine as the limiting reagent. For kinetic assays, the ratio of L:E:RΔΔ was 1:10:30 with 0.25 μM deoxyribozyme (E). For isolation of the reaction products, the ratio L:E:RΔΔ was 1:2:3 with 1.5 μM deoxyribozyme. The reaction was performed under the enhanced incubation conditions with 20 mM GTP and 150 mM MgCl2 in 100 mM CHES, pH 9.0, 150 mM NaCl, and 2 mM KCl at 37° C. for up to 7 hours. […] Both products were isolated and shown by partial alkaline hydrolysis to be branched with the connectivities A-G and A-GG (where A is the branch-site adenosine).
It was contemplated that the new A-GG product was formed by initial templated but otherwise uncatalyzed synthesis of a GG dinucleotide (i.e., pppGpG) from two GTP molecules, followed by 10DM24-catalyzed branch formation using this dinucleotide. […] The reaction was performed under the enhanced incubation conditions of 20 mM GTP and 150 mM MgCl2. […] The pppGpG dinucleotide was synthesized independently using T7 RNA polymerase (Huang, et al. (1998) supra) and led solely to the A-GG product. Although the pppGpG substrate had Kd,app of >1 mM with RΔΔ, similar to Kd,app for GTP with RΔ, the ligation reaction with pppGpG and RΔΔ had kobs six-fold higher than for the analogous reaction with GTP and RΔ (Table 8).
Similar experiments were performed using the mutant 10DM24 deoxyribozyme that has CTTT rather than CCTT in the P4 region (FIG. 11). For the DNA-catalyzed ligation of pppGpG, the 5′-^32P-labeled RNA with the branch-site adenosine (L) was incubated with the 10DM24 deoxyribozyme (E) and the cofactor RΔΔ in the ratio of L:E:RΔΔ=1:10:30 in the presence of 1 mM pppGpG and 40 mM MgCl2 in 100 mM CHES pH 9.0, 150 mM NaCl, and 2 mM KCl at 37° C. The analysis of the ligation reaction was performed as described herein. […] This is consistent with the model that pppGpG and the first two nucleotides of RΔΔ together reconstitute the P4 helix. When the ligation reaction with pppGpG was tested in the presence of RΔ instead of RΔΔ, the ligation product A-GG was formed, but with a 10-fold decrease in kobs (squares in FIG. 11). Because RΔ provides an extraneous G nucleotide when combined with pppGpG (see legend of FIG. 11), some disruption in activity is perhaps anticipated. […] This is consistent with the observation that GTP was also not a substrate for the 10DM24-C44T mutant deoxyribozyme.
The ligation reaction of pppGpG was also performed using a variety of pppGpG concentrations with the parent 10DM24 deoxyribozyme in the presence of RΔΔ and 40 mM MgCl2. In FIG. 12, the kobs values are plotted versus [pppGpG] and fit to kobs=kmax·[pppGpG]/(Kd,app+[pppGpG]). The Kd,app for pppGpG was >1 mM.

[3] = test system: 10DM24-C44T mutant deoxyribozyme; assay: Ligation of NTP substrate with 10DM24 variant in which the terminal P4 nucleotide is changed C→T, cofactor RΔ; details: for krel = kobs,NTP*/kobs,NTP: relative to ATP
Procedure: as §1
Focus was then placed on the purine NTPs (GTP, ATP) and their derivatives. When 1 mM ATP was provided as a small molecule substrate in place of GTP using the original 10DM24 sequence and RΔ, no reaction was observed (<1% in 5 hours). […] Furthermore, the kobs increased sixteen-fold to 0.013 min^−1 under enhanced conditions with 10 mM ATP (82% yield in 3 hours).

[4] = test system: 10DM24 deoxyribozyme; assay: Ligation with full-length R oligonucleotide as substrate, varied 5′-terminal nucleotide; details: for kobs: full-length R substrate, deoxyribozyme nucleotide changed to maintain Watson-Crick complementarity
Procedure: as §1
The generality of the ligation reaction using other NTP substrates in place of GTP was also determined. The analogous reaction with the full-length R oligonucleotide as substrate proceeded well when a 5′-terminal G was present (kobs 0.51 min^−1 for 5′-AppG), with only three-fold reduced rate with 5′-AppA (kobs 0.18 min^−1). The RNA substrate with 5′-AppC reacted 20-fold more slowly than 5′-AppG, but still gave high yield (kobs 0.024 min^−1; 89% in 3 hours), whereas the yield with 5′-AppU was very poor (kobs 0.002 min^−1; 9% in 3 hours). It is noted that in all cases, the corresponding deoxyribozyme nucleotide was changed to maintain Watson-Crick complementarity.

[5] = enhanced incubation conditions: 10 mM NTP, 150 mM MgCl2, 100 mM CHES pH 9.0, 37° C.
[6] = standard incubation conditions: 1 mM NTP, 40 mM MgCl2, 100 mM CHES pH 9.0, 150 mM NaCl, 2 mM KCl, 37° C., RΔ
[7] = enhanced incubation conditions: 10 mM NTP, 150 mM MgCl2, pH 9.0, 37° C.
[8] = standard incubation conditions: 1 mM NTP, 40 mM MgCl2, pH 9.0, 37° C., RΔ, ATP series
[9] = standard conditions except with 50 mM CHES

| Compound | kobs,enh/kobs,std [1] | ligation yield %, 3 h ([1]; enhanced incubation conditions) | kobs [1, 5] | krel = kobs,NTP*/kobs,NTP ([1]; enhanced incubation conditions) | ligation yield %, 5 h ([1]; standard incubation conditions) | kobs [1, 6] | krel = kobs,NTP*/kobs,NTP ([1]; standard incubation conditions) | kobs,enh/kobs,std ([3]; ATP series) | ligation yield %, 3 h ([3]; enhanced incubation conditions) | kobs [3, 7] | krel = kobs,NTP*/kobs,NTP ([3]; enhanced incubation conditions) | ligation yield %, 5 h ([3]; standard incubation conditions) | kobs [3, 8] | krel = kobs,NTP*/kobs,NTP ([3]; standard incubation conditions) | also measured |
| --- | --- | --- | --- | --- | --- | --- | --- | --- | --- | --- | --- | --- | --- | --- | --- |
| Nc1nc2c(ncn2COCCOP(=O)(O)OP(=O)(O)OP(=O)(O)O)c(=O)[nH]1 [G^acv-TP, acyclovir triphosphate] | >7 | 14% | 0.0007 min⁻¹ | 0.003 | <1% | <0.0001 min⁻¹ | <0.0003 | – | – | – | – | – | – | – | kobs diminished relative to GTP [1]: ~300 fold |
| Nc1nc2c(ncn2[C@H]2C[C@H](O)[C@@H](COP(=O)(O)OP(=O)(O)OP(=O)(O)O)O2)c(=O)[nH]1 [dGTP, 2′-deoxyGTP] | 4 | 90% | 0.081 min⁻¹ | 0.31 | 88% | 0.020 min⁻¹ | 0.60 | – | – | – | – | – | – | – | reaction products formed [2]: only the single-nucleotide addition product |
| C2-C3-cleaved GTP [G^clv-TP] | >3 | 6% | 0.0003 min⁻¹ | 0.001 | <1% | <0.0001 min⁻¹ | <0.0003 | – | – | – | – | – | – | – | kobs diminished relative to GTP [1]: approximately 1000 fold |
| Nc1ncnc2c1ncn2[C@@H]1O[C@H](COP(=O)(O)OP(=O)(O)OP(=O)(O)O)[C@@H](O)[C@@H]1O [ara-ATP, arabino-ATP] | – | – | – | – | – | – | – | 13 | 44% | 0.005 min⁻¹ | 0.41 | 13% | 0.0004 min⁻¹ | 0.50 | – |
| Nc1ncnc2c1ncn2[C@H]1C[C@H](O)[C@@H](COP(=O)(O)OP(=O)(O)OP(=O)(O)O)O1 [dATP] | – | – | – | – | – | – | – | 19 | 65% | 0.007 min⁻¹ | 0.56 | 17% | 0.0004 min⁻¹ | 0.50 | – |
| O=P(O)(O)OP(=O)(O)OP(=O)(O)OC[C@H]1O[C@@H](n2cnc3c(O)ncnc32)[C@H](O)[C@@H]1O [ITP, inosine triphosphate] | 21 | 84% | 0.014 min⁻¹ | 0.05 | 25% | 0.0007 min⁻¹ | 0.02 | – | – | – | – | – | – | – | – |
| 5′-AppC: full-length R oligonucleotide substrate with 5′-terminal C (CGAAGAGAUGGCGACGG; RNA, 5' {App}, backbone not given here) | – | – | – | – | – | – | – | – | – | – | – | – | – | – | reacted more slowly than 5′-AppG [4]: 20 fold; ligation yield in 3 hours [4]: 89%; kobs [4]: 0.024 min⁻¹ |
| Nc1nc(N)c2ncn(C3OC(COP(=O)(O)OP(=O)(O)OP(=O)(O)O)C(O)C3O)c2n1 (stereo not shown) [DTP, 2,6-diaminopurine ribonucleoside triphosphate] | – | – | – | – | – | – | – | 8 | 90% | 0.027 min⁻¹ | 2.1 | 68% | 0.0032 min⁻¹ | 4.0 | – |
| 5′-AppA: full-length R oligonucleotide substrate with 5′-terminal A (AGAAGAGAUGGCGACGG; RNA, 5' {App}, backbone not given here) | – | – | – | – | – | – | – | – | – | – | – | – | – | – | kobs [4]: 0.18 min⁻¹ |
| 5′-AppU: full-length R oligonucleotide substrate with 5′-terminal U (UGAAGAGAUGGCGACGG; RNA, 5' {App}, backbone not given here) | – | – | – | – | – | – | – | – | – | – | – | – | – | – | ligation yield in 3 hours [4]: 9%; kobs [4]: 0.002 min⁻¹ |
| Nc1nc2c(ncn2[C@H]2CC[C@@H](COP(=O)(O)OP(=O)(O)OP(=O)(O)O)O2)c(=O)[nH]1 [ddGTP, 2′,3′-dideoxyGTP] | – | – | – | – | – | – | – | – | – | – | – | – | – | – | kobs [1, 9]: 0.013 min⁻¹; ligation yield %, 5 h [1, 9]: 85%; krel = kobs,NTP*/kobs,NTP [1, 9]: 0.38 |
| Nc1ncc2ncn([C@H]3C[C@H](O)[C@@H](COP(=O)(O)OP(=O)(O)OP(=O)(O)O)O3)c2n1 [d2AP-TP] | – | – | – | 0.003 | – | – | <0.0003 | >8 | 17% | 0.0008 min⁻¹ | 0.06 | <1% | – | <0.1 | kobs ([3]; standard conditions with 5′-OH-RΔ): <0.0001^[c] min^−1 |
| Nc1ncnc2c1ncn2[C@H]1CC[C@@H](COP(=O)(O)OP(=O)(O)OP(=O)(O)O)O1 [ddATP] | – | – | – | – | – | – | – | – | – | – | – | 25% | 0.0007 min⁻¹ | 0.87 | – |
